# Results as given in PubChem BioAssay (NCI).
#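 Test compounds were applied to cells in 96-well plates for 48 hours at 5 doses. At the GI50, growth is halved. At the TGI there is no net growth.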
# Columns and labels:
# Test in all cases: NCI-60 cell line screen, 48 h
# [1] = system: SF-295 CNS
# [2] = system: DU-145 prostate
# [3] = system: OVCAR-8 ovarian
# [4] = system: SF-539 CNS
# [5] = system: SK-MEL-5 melanoma
# [6] = system: SK-OV-3 ovarian
# [7] = system: SF-268 CNS
# [8] = system: NCI-H226 lung
# [9] = system: SNB-19 CNS
# [10] = system: 786-0 renal
# [11] = system: M14 melanoma
# [12] = system: CAKI-1 renal
# [13] = system: MALME-3M melanoma
# [14] = system: OVCAR-3 ovarian
# [15] = system: NCI/ADR-RES ovarian
# [16] = system: PC-3 prostate
# [17] = system: SNB-75 CNS
# [18] = system: HOP-92 NSCLC
# [19] = system: K-562 leukemia
# [20] = system: MDA-MB-231 breast
# [21] = system: EKVX NSCLC
# [22] = system: RPMI-8226 leukemia
# [23] = system: NCI-H460 lung
# [24] = system: MDA-MB-435
# [25] = system: IGROV1 ovarian
# [26] = system: A498 renal
# [27] = system: MCF7 breast
# [28] = system: U251 CNS
# [29] = system: OVCAR-5 ovarian
# [30] = system: HOP-62 NSCLC
# [31] = system: TK-10 renal
# [32] = system: UO-31 renal
# [33] = system: A549 NSCLC
# [34] = system: NCI-H522 lung
# [35] = system: CCRF-CEM leukemia
# [36] = system: UACC-257 melanoma
# [37] = system: SK-MEL-28 melanoma
# [38] = system: HCC-2998 colon
# [39] = system: HCT-116 colon
# [40] = system: COLO 205 colon
# [41] = system: ACHN renal
# [42] = system: HL-60(TB) leukemia
# [43] = system: KM12 colon
# [44] = system: HT29 colon
# [45] = system: BT-549 breast
# [46] = system: OVCAR-4 ovarian
# [47] = system: HCT-15 colon
# [48] = system: SR leukemia
# [49] = system: T-47D breast
# [50] = system: SK-MEL-2 melanoma
# [51] = system: MOLT-4 leukemia
# [52] = system: NCI-H23 lung
# [53] = system: HS 578T breast
# [54] = system: LOX IMVI melanoma
# [55] = system: SN12C renal
# [56] = system: UACC-62 melanoma
# [57] = system: SW-620 colon
smiles,measurement,setting,value
COc1ccc(Cl)cc1Nc1nc(C(F)(F)F)ccc1C(=O)N/N=C/c1cc(OC)c(OC)c(OC)c1,GI50,[1],1.09 µM
same,TGI,[1],2.92 µM
same,GI50,[2],4.27 µM
same,TGI,[2],> 100 µM
same,GI50,[3],1.59 µM
same,TGI,[3],4.89 µM
same,GI50,[4],1.51 µM
same,TGI,[4],3.2 µM
same,GI50,[5],1.68 µM
same,TGI,[5],4.57 µM
same,GI50,[6],3.04 µM
same,TGI,[6],15 µM
same,GI50,[7],1.32 µM
same,TGI,[7],5.75 µM
same,GI50,[8],3.35 µM
same,TGI,[8],12.6 µM
same,GI50,[9],2.44 µM
same,TGI,[9],19.5 µM
same,GI50,[10],1.78 µM
same,TGI,[10],3.68 µM
same,GI50,[11],1.61 µM
same,TGI,[11],3.93 µM
same,GI50,[12],1.61 µM
same,TGI,[12],4.98 µM
same,GI50,[13],1.07 µM
same,TGI,[13],4.05 µM
same,GI50,[14],0.449 µM
same,TGI,[14],> 100 µM
same,GI50,[15],3.35 µM
same,TGI,[15],21.6 µM
same,GI50,[16],2.4 µM
same,TGI,[16],17.4 µM
same,GI50,[17],2.19 µM
same,TGI,[17],9.8 µM
same,GI50,[18],2.09 µM
same,TGI,[18],7.56 µM
same,GI50,[19],2.42 µM
same,TGI,[19],> 100 µM
same,GI50,[20],2.21 µM
same,TGI,[20],8.66 µM
same,GI50,[21],1.36 µM
same,TGI,[21],13.5 µM
same,GI50,[22],> 100 µM
same,TGI,[22],> 100 µM
same,GI50,[23],2.68 µM
same,TGI,[23],10.1 µM
same,GI50,[24],2.41 µM
same,TGI,[24],7.72 µM
same,GI50,[25],0.346 µM
same,TGI,[25],2.3 µM
same,GI50,[26],2.19 µM
same,TGI,[26],7.65 µM
same,GI50,[27],1.52 µM
same,TGI,[27],7.46 µM
same,GI50,[28],1.75 µM
same,TGI,[28],15.1 µM
same,GI50,[29],5.59 µM
same,TGI,[29],24.4 µM
same,GI50,[30],5.17 µM
same,TGI,[30],20.5 µM
same,GI50,[31],1.76 µM
same,TGI,[31],7.28 µM
same,GI50,[32],1.24 µM
same,TGI,[32],3.79 µM
same,GI50,[33],2.64 µM
same,TGI,[33],6.64 µM
same,GI50,[34],2.29 µM
same,TGI,[34],5.83 µM
same,GI50,[35],1.27 µM
same,TGI,[35],> 100 µM
same,GI50,[36],1.65 µM
same,TGI,[36],3.96 µM
same,GI50,[37],1.83 µM
same,TGI,[37],9.26 µM
same,GI50,[38],2.24 µM
same,TGI,[38],19.7 µM
same,GI50,[39],2.41 µM
same,TGI,[39],7.66 µM
same,GI50,[40],2.62 µM
same,TGI,[40],8.33 µM
same,GI50,[41],3.28 µM
same,TGI,[41],11.3 µM
same,GI50,[42],2.21 µM
same,TGI,[42],5.77 µM
same,GI50,[43],3.55 µM
same,TGI,[43],20.8 µM
same,GI50,[44],3.73 µM
same,TGI,[44],13.2 µM
same,GI50,[45],1.2 µM
same,TGI,[45],3.68 µM
same,GI50,[46],1.32 µM
same,TGI,[46],> 100 µM
same,GI50,[47],1.23 µM
same,TGI,[47],11.9 µM
same,GI50,[48],1.19 µM
same,TGI,[48],4.19 µM
same,GI50,[49],1.39 µM
same,TGI,[49],8.03 µM
same,GI50,[50],1.76 µM
same,TGI,[50],5.35 µM
same,GI50,[51],0.642 µM
same,TGI,[51],2.82 µM
same,GI50,[52],5.35 µM
same,TGI,[52],40.6 µM
same,GI50,[53],1.94 µM
same,TGI,[53],4.67 µM
same,GI50,[54],1.25 µM
same,TGI,[54],3.28 µM
same,GI50,[55],2.09 µM
same,TGI,[55],18 µM
same,GI50,[56],2.09 µM
same,TGI,[56],3.74 µM
same,GI50,[57],2.79 µM
same,TGI,[57],> 100 µM
CCN(CCNc1ccc(C)c2sc3ccccc3c(=O)c12)CC(C)(C)O,GI50,[1],3.77 µM
same,TGI,[1],20.2 µM
same,GI50,[2],15.4 µM
same,TGI,[2],38.2 µM
same,GI50,[3],17.8 µM
same,TGI,[3],> 71.6 µM
same,GI50,[4],12.1 µM
same,TGI,[4],25.2 µM
same,GI50,[5],2.31 µM
same,TGI,[5],6.17 µM
same,GI50,[6],11.1 µM
same,TGI,[6],27 µM
same,GI50,[7],14.9 µM
same,TGI,[7],32.2 µM
same,GI50,[8],15.2 µM
same,TGI,[8],33 µM
same,GI50,[9],11.9 µM
same,TGI,[9],25.9 µM
same,GI50,[10],8.31 µM
same,TGI,[10],23 µM
same,GI50,[11],4.21 µM
same,TGI,[11],12.2 µM
same,GI50,[12],5.35 µM
same,TGI,[12],22.4 µM
same,GI50,[13],17.8 µM
same,TGI,[13],54.6 µM
same,GI50,[14],13.1 µM
same,TGI,[14],27.4 µM
same,GI50,[15],14.1 µM
same,TGI,[15],56.1 µM
same,GI50,[16],12.9 µM
same,TGI,[16],53.5 µM
same,GI50,[17],15.7 µM
same,TGI,[17],48.6 µM
same,GI50,[18],5.47 µM
same,TGI,[18],20.5 µM
same,GI50,[19],2.94 µM
same,TGI,[19],> 22.2 µM
same,GI50,[20],6.88 µM
same,TGI,[20],23.7 µM
same,GI50,[21],20.1 µM
same,TGI,[21],> 66.7 µM
same,GI50,[22],2.11 µM
same,TGI,[22],8.04 µM
same,GI50,[23],3.24 µM
same,TGI,[23],11.2 µM
same,GI50,[24],6.51 µM
same,TGI,[24],28.6 µM
same,GI50,[25],13.2 µM
same,TGI,[25],31.5 µM
same,GI50,[26],7.46 µM
same,TGI,[26],21.5 µM
same,GI50,[27],11.1 µM
same,TGI,[27],26.8 µM
same,GI50,[28],5.67 µM
same,TGI,[28],19.4 µM
same,GI50,[29],16.8 µM
same,TGI,[29],36.5 µM
same,GI50,[30],14.6 µM
same,TGI,[30],34.3 µM
same,GI50,[31],14.3 µM
same,TGI,[31],33.7 µM
same,GI50,[32],7.34 µM
same,TGI,[32],24.3 µM
same,GI50,[33],6.84 µM
same,TGI,[33],25.5 µM
same,GI50,[34],14.9 µM
same,TGI,[34],47.8 µM
same,GI50,[35],6.95 µM
same,TGI,[35],34.5 µM
same,GI50,[36],2.15 µM
same,TGI,[36],5.43 µM
same,GI50,[37],6.16 µM
same,TGI,[37],17.8 µM
same,GI50,[38],8.81 µM
same,TGI,[38],27.3 µM
same,GI50,[39],6.62 µM
same,TGI,[39],22.6 µM
same,GI50,[40],3 µM
same,TGI,[40],13.2 µM
same,GI50,[41],12.3 µM
same,TGI,[41],34.8 µM
same,GI50,[42],8.9 µM
same,TGI,[42],> 35.7 µM
same,GI50,[43],4.23 µM
same,TGI,[43],14.1 µM
same,GI50,[44],2.68 µM
same,TGI,[44],7.84 µM
same,GI50,[45],15.3 µM
same,TGI,[45],36.6 µM
same,GI50,[46],21.2 µM
same,TGI,[46],> 92.1 µM
same,GI50,[47],2.59 µM
same,TGI,[47],7.78 µM
same,GI50,[48],4.76 µM
same,TGI,[48],> 100 µM
same,GI50,[49],13.4 µM
same,TGI,[49],47.3 µM
same,GI50,[50],11.9 µM
same,TGI,[50],33 µM
same,GI50,[51],6.26 µM
same,TGI,[51],> 46 µM
same,GI50,[52],15.4 µM
same,TGI,[52],41.8 µM
same,GI50,[53],11.5 µM
same,TGI,[53],29.2 µM
same,GI50,[54],6.14 µM
same,TGI,[54],18.9 µM
same,GI50,[55],13.2 µM
same,TGI,[55],28.3 µM
same,GI50,[56],2.9 µM
same,TGI,[56],9.48 µM
same,GI50,[57],4.63 µM
same,TGI,[57],15.8 µM
